Test results published in PubChem BioAssay AID179 (DTP/NCI, 2004).
Active and inactive are the calls of the source.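 How the source made its calls: active means compounds giving half or more protection of infected cells from virus-caused growth loss, again on retest; inactive means the rest.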 Where a SMILES comes first, the peptide text is derived from it.

Tested on: CEM cells HIV-1 protection, formazan growth assay
Assay: NCI AIDS Antiviral Assay
Details: for IC50: measured here: growth of uninfected CEM cells
Method in brief: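 Protection of CEM cells against HIV-1 was scored from cell growth (soluble formazan) across five concentrations, with parallel uninfected cells. Lack of protection may reflect toxicity.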

## Cn1cnc([N+](=O)[O-])c1Sc1nccn1-c1ccccc1
  EC50: > 832 µM
  IC50: 9.33 µM

## O=C1C(c2ccccc2)=[N+]([O-])c2ccc(Cl)cc21
  outcome: inactive

## COC1(C)C(=O)N2C1N(C(=O)OCc1ccccc1)CC2(C)C (configuration not stated)
  EC50: > 251 µM
  IC50: > 251 µM

## c1ccc2nc3c(nc2c1)sc1nc2ccccc2n13
  EC50: > 200 µM
  IC50: > 200 µM

## COc1ccc(C)cc(=O)c1O
  EC50: > 251 µM
  IC50: 14.5 µM

## N#CNC(N)=Nc1cc2ccccc2c2ccccc12
  EC50: > 100 µM
  IC50: 4.27 µM

## O=C(/C=C(\O)C(=O)O)/C=C(\O)c1ccccc1Cl
  EC50: 389 µM
  IC50: 589 µM

## Cc1cn(C2OCC(CO)C2O)c(=O)[nH]c1=O (configuration not stated)
  EC50: > 200 µM
  IC50: > 200 µM

## Cc1ccc(SCC(CF)OC(C)n2cnc3c(Cl)nc(N)nc32)cc1 (configuration not stated)
  EC50: > 200 µM
  IC50: 38 µM

## CN(NC(=O)/C(=C/c1c(O)ccc2ccccc12)NC(=O)c1ccccc1)c1cn[nH]c(=O)c1Cl
  EC50: > 200 µM
  IC50: > 200 µM

## CCOc1ccc(NC(=O)C(=O)C(/C(=N/N)C(=O)OC)c2nc3ccc([N+](=O)[O-])cc3[nH]c2=O)cc1 (configuration not stated)
  EC50: > 14.5 µM
  IC50: > 14.5 µM

## COc1cccc(N2C(=O)/C(=C/c3ccc(N(CCC#N)CCC#N)cc3)N=C2c2cc([N+](=O)[O-])ccc2Cl)c1
  EC50: > 9.33 µM
  IC50: > 9.33 µM

## CC(C)(C)OC(=O)N(CCCN)CCCCN
  EC50: > 200 µM

## CNc1ccc(Cl)cc1S(=O)(=O)c1ccc([N+](=O)[O-])cc1
  EC50: > 200 µM
  IC50: > 200 µM

## O=C(CC1=Nc2nnc(-c3nnc4n3C(=O)C(CC(=O)c3cccnc3)=N4)n2C1=O)c1cccnc1
  EC50: > 15.1 µM
  IC50: > 15.1 µM

## CN1C(=O)N(C)[C@@H]2CC(=O)c3ccc(C(F)(F)F)cc3N2C1=O
  EC50: > 288 µM
  IC50: > 288 µM

## CSC1=Nc2ccccc2N=C(c2ccc(Cl)cc2)C1
  EC50: > 12.6 µM
  IC50: > 12.6 µM

## COc1cc(C2c3cccc4cccc(c34)C3CCC(=O)N32)cc(O)c1O (configuration not stated)
  EC50: 3.02 µM
  IC50: 9.33 µM

## O=C(CCN(CCO)CCO)Nc1ccc2c(c1)C(=O)c1ccc(NC(=O)CCN(CCO)CCO)cc1C2=O
  EC50: > 200 µM
  IC50: 1.66 µM

## COC1OC(CO)C(N=C(C)C)C1O (configuration not stated)
  EC50: > 200 µM
  IC50: > 200 µM

## Cc1ccc2c(c1)nc1c3ccccc3[nH]n21
  EC50: > 5.89 µM
  IC50: > 5.89 µM

## NC(=O)C1CCCN1C(=O)C(N)Cc1ccccc1 (stereo not drawn) (H-Phe-Pro-NH2; configuration not given here)
  EC50: > 200 µM
  IC50: > 200 µM

## CCOC(=O)CC(c1ccccc1)C(C)(C(=O)OCC)C(=O)OCC (configuration not stated)
  outcome: inactive

## CS(=O)(=O)N1CC(CI)c2ccc(O)cc21 (configuration not stated)
  EC50: > 200 µM
  IC50: 2.4 µM

## NCCCC1CCCCNC1 (configuration not stated)
  outcome: inactive

## C#CCCOC(=O)CC1=C(C)/C(=C/c2ccc(S(C)=O)cc2)c2ccc(F)cc21 (configuration not stated)
  EC50: > 200 µM
  IC50: 14.8 µM

## CC1=N/C(=C\c2cccc(Br)c2)C(=O)O1
  EC50: > 97.7 µM
  IC50: 66.1 µM

## CC(C)(C)C1CCC2c3c([nH]c4ccccc34)C3C(=O)N(c4ccccc4)C(=O)C3C2C1 (configuration not stated)
  outcome: inactive

## NCCCCC(=O)NC(CCCCNC(=O)OCc1ccccc1)C(=O)NCCCCC(=O)NC(CCCCNC(=O)OCc1ccccc1)C(=O)NCCCCC(=O)NC(CCCCNC(=O)OCc1ccccc1)C(=O)NCCCCC(=O)NC(CCCCNC(=O)OCc1ccccc1)C(=O)NCCCCC(=O)NC(CCCCNC(=O)OCc1ccccc1)C(=O)O (configuration not stated)
  EC50: > 14.1 µM
  IC50: 13.8 µM

## C=C(C)C1CC2=C(O1)C(=O)c1ccccc1C2=O (configuration not stated)
  EC50: > 200 µM
  IC50: 2 µM

## C[N+]1(C)C[C@@H](O)C[C@@H]1C(=O)[O-]
  EC50: > 1580 µM
  IC50: > 1580 µM

## c1ccc(CN2COc3c(ccc4c5c(ccc34)CN(Cc3ccccc3)CO5)C2)cc1
  EC50: > 2.45 µM
  IC50: > 2.45 µM

## COc1ccc2nc3ccc(OC)cc3c(SCCO)c2c1
  EC50: > 200 µM
  IC50: 8.51 µM

## O=C1CC2(CCN(Cc3ccccc3)CC2)C(=O)N1N1CCCCC1
  EC50: > 200 µM
  IC50: > 200 µM

## CC1C2c3ccccc3C(c3ccccc32)C1CN1C(CCO)COC1c1ccccc1 (configuration not stated)
  EC50: > 200 µM
  IC50: 38 µM

## CC(C)NC(=O)/C=C/C=C/c1ccc(Cl)cc1
  EC50: > 28.8 µM
  IC50: > 28.8 µM

## CC1=NNC(=O)[C@H]2[C@H]1CCC1[C@@H]2CC[C@]2(C)[C@@H](O)CC[C@@H]12 (some centres not stated)
  EC50: > 200 µM
  IC50: > 200 µM

## Cc1nc2c(c(=O)[nH]1)C1CCCCCCCN1C(=S)N2C (configuration not stated)
  EC50: > 200 µM
  IC50: 132 µM

## C/C(CN1C(=O)c2ccccc2C1=O)=N\NS(C)(=O)=O
  EC50: > 851 µM
  IC50: 589 µM

## COc1ccc2c(c1)OCCN(C)OC2c1cccc(Cl)c1 (configuration not stated)
  EC50: > 200 µM
  IC50: 87.1 µM

## OC(CC(O)(C(F)(F)F)C(F)(F)F)c1ccc(C(O)CC(O)(C(F)(F)F)C(F)(F)F)cc1 (configuration not stated)
  EC50: > 200 µM
  IC50: 10.2 µM

## CCN(CC)CCNC(=O)c1cn2c(ccc3sc4ccccc4c(=O)c32)n1
  EC50: > 20 µM
  IC50: 1.1 µM

## Cc1oc2nc(N(C)C)n3cnnc3c2c1C
  outcome: inactive

## COc1cc(Nc2nc3ccccc3nc2C(=O)O)cc(OC)c1OC
  EC50: > 200 µM
  IC50: 8.91 µM

## O=c1cc(Cl)c(=O)n(-c2ccccc2)[nH]1
  EC50: > 1120 µM
  IC50: 1070 µM

## COc1cc(C)cc2c1C(=O)C(Br)=CC2=O
  EC50: > 200 µM
  IC50: 1.95 µM

## O=S(=O)(c1ccccc1)N1CC2C3C=CC(C3)C2C1 (configuration not stated)
  EC50: > 200 µM
  IC50: 145 µM

## CCOC(=O)Nc1nc2cc(C(=O)OC)n(C)c2s1
  EC50: > 200 µM
  IC50: > 200 µM

## COC1CCC(=O)N1CN(C(C)=O)c1ccc(C)cc1 (configuration not stated)
  outcome: inactive

## O/N=C1/C(=C/c2ccc3c(c2)OCO3)CCCC1C(NO)c1ccc2c(c1)OCO2 (configuration not stated)
  EC50: > 12.6 µM
  IC50: > 12.6 µM

## CC#CCCC1(CC)CCCN(C(=O)OC(C)C)C1OCC (configuration not stated)
  EC50: > 32.4 µM
  IC50: > 32.4 µM

## CC1(C)COC2(c3ccccc3)N(c3ccccc3)C(=O)ON12 (configuration not stated)
  EC50: > 200 µM
  IC50: > 200 µM

## O=c1oc2ccccc2c(O)c1C(C/C(=N/O)c1ccccc1)c1ccccc1 (configuration not stated)
  EC50: > 200 µM
  IC50: 70.8 µM

## Cc1cc2c3ccccc3n(C)c2c2c1C(=O)c1ccccc1C2=O
  EC50: > 7.94 µM
  IC50: > 7.94 µM

## CN(C)c1nc(N(C)C)nc(N2C(=O)CCC2=O)n1
  EC50: > 200 µM
  IC50: > 200 µM

## N#Cc1ccc(OCc2ccc3nc(-c4ccccc4)c(Cl)nc3c2)cc1
  EC50: > 100 µM
  IC50: > 100 µM

## COc1ccc(N=Nc2ccc3oc(=O)c(C(=O)Nc4ccc(OC)cc4)cc3c2)cc1
  EC50: > 200 µM
  IC50: 20 µM

## O=C(Nc1nc2ccccc2[nH]1)C(=O)NC12CC3CC(CC(C3)C1)C2
  outcome: inactive

## CC[N+](C)(CC)CCNC(=O)C(O)(c1ccccc1)c1ccccc1
  EC50: > 200 µM
  IC50: > 200 µM

## CCCCCCCCCCCCCCCCOP(=O)(O)OP(=O)(O)OCC1OC(n2cnc3c(N)ncnc32)C(O)C1O (configuration not stated)
  EC50: > 200 µM
  IC50: 120 µM

## C[CH2][Sn]([Cl])([Cl])[CH2]C
  outcome: inactive

## O=C(O)CCCCSCCCCCCSCCCCC(=O)O
  EC50: > 141 µM
  IC50: > 141 µM

## O=C1O[C@H](C(Cl)(Cl)Cl)N2CCCC12 (some centres not stated)
  EC50: > 204 µM
  IC50: > 204 µM

## COC(=O)Cc1c([C@@]2(C)CCCC(C)(C)C2)ccc2c1C(=O)OC2
  outcome: inactive

## COc1c(C)c(-c2c(C)c(OC)c3c(c2OC)OCO3)c(OC)c2c1OCO2
  EC50: > 200 µM
  IC50: 170 µM

## CC(NC(=O)c1ccccc1)NC(=O)C(C)C(=O)Nc1ccccc1 (configuration not stated)
  outcome: inactive

## Cc1ccc(S(=O)(=O)N/N=C\C2c3ccccc3-c3ccccc32)cc1
  EC50: > 200 µM
  IC50: 2.19 µM

## Clc1cc(N/N=C(\c2ccccc2)c2ccccn2)ncn1
  EC50: > 0.2 µM
  IC50: 0.0631 µM

## COc1ccc(C(=O)C(c2ccc(OC)cc2)C2OC(=O)C(Cl)=C2Cl)cc1 (configuration not stated)
  EC50: > 17.8 µM
  IC50: > 17.8 µM

## COc1ccc(C2c3c(-c4ccccc4)nn(-c4ccccc4)c3Oc3ncn(N)c(=N)c32)cc1OC (configuration not stated)
  EC50: > 200 µM
  IC50: 30.2 µM

## Cc1cc2nc(=O)cc(CCl)n2c(=O)n1C(=O)C(O)C(O)C(O)CO (configuration not stated)
  outcome: inactive

## O=C(COc1ccc(OCC(=O)N2C(=O)CN(c3ccc(Cl)cc3)C2=S)cc1)N1C(=O)CN(c2ccc(Cl)cc2)C1=S
  EC50: > 200 µM
  IC50: 43.7 µM

## Cc1ccc(Cc2nn(C)c(=O)n2N)cc1
  outcome: inactive

## COC(=O)C12C(=O)CC3CCC1C32C(=O)OC (configuration not stated)
  outcome: inactive

## O=C1c2ccccc2C(=O)N1CCN(CCN1C(=O)c2ccccc2C1=O)Cc1ccccc1
  outcome: inactive

## CN1c2c(nc(N)[nH]c2=O)NCC1CCNc1ccc(C(=O)NC(CCC(=O)O)C(=O)O)cc1 (configuration not stated)
  EC50: > 240 µM
  IC50: 204 µM

## Cn1c(C(=O)/C=C/c2ccc([N+](=O)[O-])cc2)nc2ccccc21
  EC50: > 200 µM
  IC50: 33.1 µM

## O=C(O)C1=CN(c2ccncc2)C(c2ccco2)=CC1c1ccccc1[N+](=O)[O-] (configuration not stated)
  EC50: > 200 µM
  IC50: 4.79 µM

## Cc1cc(=O)[nH]c(CNC(=O)c2cccc3ccccc23)n1
  EC50: > 851 µM
  IC50: > 851 µM

## Clc1ccc(SSc2ccccc2)cc1
  outcome: inactive

## CC(=O)[C@H]1[C@H](O)C[C@@]2(C)[C@@H]3CCc4cc(O)c(OC5OC(CO)C(O)C(O)C5O)cc4C3(C)C(=O)C[C@]12C (some centres not stated)
  EC50: > 200 µM
  IC50: > 200 µM

## C/C=N\N1C(=O)c2ccccc2C1=O
  EC50: > 191 µM
  IC50: > 191 µM

## COCCCCCCCCCCC(=O)OCC1OC(n2cc(C)c(=O)[nH]c2=O)CC1N=[N+]=[N-] (configuration not stated)
  outcome: active
  IC50: 117 µM

## C[N+]1=C(c2ccc[n+](C)c2/C=N/O)OCC1(C)C
  EC50: > 501 µM
  IC50: > 501 µM

## Nc1ccc2c(C(F)(F)F)cc(=O)oc2c1
  EC50: > 22.9 µM
  IC50: > 22.9 µM

## O=C(NNC1=NCCCN1)c1ccco1
  EC50: > 200 µM
  IC50: > 200 µM

## O=[N+]([O-])c1cccc(C2N3CCCCC3[C@@H]3c4[nH]c5ccccc5c4CCN23)c1 (some centres not stated)
  EC50: > 18.6 µM
  IC50: > 18.6 µM

## Nc1ncnc2c1ncn2C1CCC(COP(=O)(O)O)O1 (configuration not stated)
  EC50: 20 µM
  IC50: > 200 µM

## O=C(O)C12CCCCC1CCCC2 (configuration not stated)
  EC50: > 372 µM
  IC50: > 372 µM
